Measurements reported in PMC6009868, “Synthesis and bioactivity of several new hetaryl sulfonamides” (Journal of Enzyme Inhibition and Medicinal Chemistry, 2017).

Experiment: Metal chelating activity (Fe2+-ferrozine, 562 nm)
Details: absorbance at 562 nm
Experimental: Metal chelating capacity of hetaryl sulfonamides 1–12 was determined according to Dinis et al.[60]. […] Simultaneously, to a mixture of FeCl2 (0.1 mL, 0.6 mM), three concentrations (10–30 µg/mL) of hetaryl sulfonamides 1–12 in ethanol (0.4 mL) were added. The activities were initiated by the addition of ferrozine molecules (0.1 mL, 5 mM). Additionally, the reaction was mixed and maintained in a dark room for 10 min.

SMILES | Fe^2+ chelating (IC50) [µg/mL]
COc1ccc(O)c(C(C)(C)C)c1 [BHA] | 46.20
Cc1cc(C(C)(C)C)c(O)c(C(C)(C)C)c1 [BHT] | 76.96
O=C(O)CN(CCN(CC(=O)O)CC(=O)O)CC(=O)O [EDTA] | 9.36
Cc1c(C)c2c(c(C)c1O)CCC(C)(C(=O)O)O2 (centres unmarked) [Trolox] | 31.13
Cc1c(C)c2c(c(C)c1O)CC[C@@](C)(CCC[C@H](C)CCC[C@H](C)CCCC(C)C)O2 [α-Tocopherol] | 40.76
